Results from paper PMC6406907, “A H2AX–CARP-1 Interaction Regulates Apoptosis Signaling Following DNA Damage” (Cancers, 2019).
No end group written: not given here. HA = not defined here

Test system: γH2AX
Test: Confocal immunofluorescence of γH2AX / peptide, MDA-MB-468
Assay type: cell-based, human
Protocol: Cells were plated onto chamber slides one day before treatment. Following treatment of cells with respective compounds, the adherent cells were fixed with 5% formaldehyde for 10 min and then washed with phosphate buffered saline (PBS). Samples were blocked (0.5% NP-40, 5% milk powder, 1% fetal bovine serum) for 30 min. After a single wash with PBS, cells were incubated with primary antibodies for 45 to 60 min. Coverslips were washed with PBS and then incubated with secondary antibodies for another 45 to 60 min. They were then washed with PBS and mounted with 0.1 μg/mL 4′,6′-diamidino-2-phenylindole (DAPI) containing mounting solution. For confocal imaging, cells were first fixed with PFA, then stained for CARP-1 by myc-tag antibodies (green), γH2AX antibodies (red), and DAPI (blue) for nuclear staining. Immunofluorescent or confocal images were taken using a Zeiss LSM 510 Meta NLO (63×).
Our next objective was to analyze the biological significance of the CARP-1–H2AX interaction in cells. […] Next, we measured activation of caspases as an apoptosis readout in cells expressing myc-His-tagged wild-type CARP-1 or CARP-1 (Δ600–650) proteins that were either untreated or treated with Adriamycin or CFM compounds as detailed in Section 2. We utilized a lower, 4–5 μM dose of Adriamycin or CFM compounds because a 10 μM Adriamycin dose caused interference in signal output/readout in this particular assay, likely due to background fluorescence that is emitted by higher dose of Adriamycin. Although Adriamycin has a maximum excitation and emission wavelength of 470 and 560 nm, respectively, we found significant fluorescence emission in cells treated with 10 μM Adriamycin at a 380-nm excitation wavelength. Moreover, since caspase activation precedes apoptotic cell death, we utilized a lower dose of Adriamycin to permit a robust measurement of optimal caspase activation in cells undergoing moderate apoptosis with lower/minimal interference by Adriamycin-induced fluorescence signals. […]

Substance	co-localization with γH2AX (6 μg/mL peptide, 72 h, confocal, insets top and middle rows of Figure 8C)	presence of γH2AX in Adriamycin-treated cells (MDA-MB-468 pre-incubated with 6 μg/mL peptide, 72 h, then Adriamycin, vs no peptide or scrambled peptide)	nuclear presence of γH2AX (MDA-MB-468 expressing EGFP-H2AX (1–35) vs EGFP, Adriamycin-treated)
His-TAT-HA-CARP-1 (636–650): His-TAT-HA-tagged CARP-1 (636–650) peptide, >95% purity, commercially synthesized ({His-TAT-HA}-PKTMKVNDLRKELES; reading uncertain; UniProt Q8IX12 636-650, looked up, fragment)	co-localization	increased presence of γH2AX	–
EGFP-H2AX (1–35): EGFP-tagged fusion protein stably expressed in MDA-MB-468 and HeLa sublines (MSGRGKTGGKARAKAKSRSSRAGLQFPVGRVHRLL; also: EGFP fusion, end not given here; UniProt P16104 1-35, looked up, fragment)	–	–	increased nuclear presence of γH2AX
